Test results from ChEMBL document CHEMBL4251610, “Branching tryptamines as a tool to tune their antiproliferative activity” (Eur J Med Chem, 2018).

Legend:
Type in all cases: functional, cell-based
SH-SY5Y = experiment: Antiproliferative activity against human SH-SY5Y cells after 24 hrs by MTT assay
HepG2 = experiment: Antiproliferative activity against human HepG2 cells after 24 hrs by MTT assay; conditions: HepG2, 24 h
HEK293 = experiment: Antiproliferative activity against HEK293 cells after 24 hrs by MTT assay; conditions: Homo sapiens, HEK293, 24 h
Jurkat = experiment: Antiproliferative activity against human Jurkat cells after 24 hrs by MTT assay

`Cc1c(CC(N)c2ccccc2)c2cc(F)ccc2n1Cc1ccccc1` (configuration not stated) showed an IC50 (SH-SY5Y) of 15 µM, an IC50 (HepG2) of 13.1 µM and an IC50 (HEK293) of 16.7 µM. The IC50 (Jurkat) was 14 µM.
`Cc1[nH]c2ccc(Br)cc2c1CC(N)c1ccc(F)cc1` (configuration not stated) showed an IC50 (SH-SY5Y) of 22.9 µM, an IC50 (HepG2) of 9.58 µM and an IC50 (HEK293) of 23.2 µM. The IC50 (Jurkat) was 11.8 µM.
For `COc1cc(CNC(Cc2c(C)[nH]c3ccc(F)cc23)c2ccccc2)cc2c1OCO2` (configuration not stated), the IC50 (SH-SY5Y) was 20 µM, the IC50 (HepG2) was 15.6 µM and the IC50 (HEK293) was 54.9 µM. For the same compound, the IC50 (Jurkat) was 14.5 µM.
With `Cc1[nH]c2ccc(-c3ccccc3)cc2c1CC(NCc1ccccc1)c1ccccc1` (configuration not stated) the IC50 (SH-SY5Y) was 20.1 µM, the IC50 (HepG2) was 45.5 µM and the IC50 (HEK293) was 20.1 µM. For the same compound, the IC50 (Jurkat) was 8.88 µM.
Work on `Cc1[nH]c2ccc(-c3ccccc3)cc2c1CC(N)c1ccccc1` (configuration not stated) yielded an IC50 (SH-SY5Y) of 12.5 µM, an IC50 (HepG2) of 1.82 µM and an IC50 (HEK293) of 10.1 µM. The IC50 (Jurkat) was 1.58 µM.
In the case of `COc1ccc(C(N)Cc2c(C)[nH]c3ccc(Br)cc23)cc1` (configuration not stated), the IC50 (SH-SY5Y) is reported as 17.8 µM, the IC50 (HepG2) is reported as 7.12 µM and the IC50 (HEK293) is reported as 18.7 µM. It also gave an IC50 (Jurkat) of 8.14 µM.
`Cc1[nH]c2ccc(Br)cc2c1CC(N)c1cc(Cl)cc(Cl)c1` (configuration not stated) gave an IC50 (SH-SY5Y) of 27.6 µM, an IC50 (HepG2) of 14.8 µM and an IC50 (HEK293) of 30.9 µM. The IC50 (Jurkat) was 9.55 µM.
In the case of `Cc1[nH]c2ccc(Br)cc2c1C[C@H](N)c1ccccc1`, the IC50 (SH-SY5Y) is reported as 25.2 µM, the IC50 (HepG2) is reported as 10.8 µM and the IC50 (HEK293) is reported as 34.8 µM. For the same compound, the IC50 (Jurkat) was 13.8 µM.
`Cc1[nH]c2ccc(F)cc2c1CCNCc1ccccc1` showed an IC50 (SH-SY5Y) of 25 µM, an IC50 (HepG2) of 14.7 µM and an IC50 (HEK293) of 21.4 µM. It also gave an IC50 (Jurkat) of 12.9 µM.
In the case of `Cc1[nH]c2ccc(Br)cc2c1CC(N)c1ccc(Cl)cc1` (configuration not stated), the IC50 (SH-SY5Y) is reported as 18.6 µM, the IC50 (HepG2) is reported as 8.43 µM and the IC50 (HEK293) is reported as 18.4 µM. The IC50 (Jurkat) was 7.5 µM.
`Cc1[nH]c2ccc(F)cc2c1CC(N)c1ccccc1` (configuration not stated) gave an IC50 (SH-SY5Y) of 59.1 µM, an IC50 (HepG2) of 15.8 µM and an IC50 (HEK293) of 73.5 µM. It also gave an IC50 (Jurkat) of 15.2 µM.
For `Cc1[nH]c2ccccc2c1CC(N)c1ccccc1` (configuration not stated), the IC50 (SH-SY5Y) was 117 µM, the IC50 (HepG2) was 16.7 µM and the IC50 (HEK293) was 109 µM. The IC50 (Jurkat) was 15.5 µM.
`Cc1[nH]c2ccc(F)cc2c1CCN` was tested, and the IC50 (SH-SY5Y) was > 100 µM, the IC50 (HepG2) was > 100 µM and the IC50 (HEK293) was > 100 µM. For the same compound, the IC50 (Jurkat) was > 100 µM.
With `Cc1[nH]c2ccc(-c3ccccc3)cc2c1CCNCc1ccccc1` the IC50 (SH-SY5Y) was 5.71 µM, the IC50 (HepG2) was 1.49 µM and the IC50 (HEK293) was 16.6 µM. The IC50 (Jurkat) was 1.45 µM.
`COc1cc(CNCCc2c(C)[nH]c3ccc(F)cc23)cc2c1OCO2` gave an IC50 (SH-SY5Y) of 12.5 µM, an IC50 (HepG2) of 16.4 µM and an IC50 (HEK293) of 17.7 µM. It also gave an IC50 (Jurkat) of 13.9 µM.
`Cc1ccc(C(N)Cc2c(C)[nH]c3ccc(Br)cc23)cc1` (configuration not stated) gave an IC50 (SH-SY5Y) of 21.9 µM, an IC50 (HepG2) of 7.76 µM and an IC50 (HEK293) of 23.2 µM. For the same compound, the IC50 (Jurkat) was 9.86 µM.
`Cc1c(CCN)c2cc(F)ccc2n1Cc1ccccc1` showed an IC50 (SH-SY5Y) of 13.1 µM, an IC50 (HepG2) of 19.7 µM and an IC50 (HEK293) of 17.2 µM. For the same compound, the IC50 (Jurkat) was 13.5 µM.
For `Cc1c(CCN)c2cc(-c3ccccc3)ccc2n1Cc1ccccc1`, the IC50 (SH-SY5Y) was 12.2 µM, the IC50 (HepG2) was 1.9 µM and the IC50 (HEK293) was 15.4 µM. It also gave an IC50 (Jurkat) of 3.82 µM.
In the case of `COc1cc(CNCCc2c(C)[nH]c3ccc(-c4ccccc4)cc23)cc2c1OCO2`, the IC50 (SH-SY5Y) is reported as 9.07 µM, the IC50 (HepG2) is reported as 1.37 µM and the IC50 (HEK293) is reported as 8.27 µM. For the same compound, the IC50 (Jurkat) was 1.51 µM.
With `Cc1[nH]c2ccc(Br)cc2c1CC(N)c1ccccc1` (configuration not stated) the IC50 (SH-SY5Y) was 42.7 µM, the IC50 (HepG2) was 14 µM and the IC50 (HEK293) was 39.4 µM. For the same compound, the IC50 (Jurkat) was 20.4 µM.
`Cc1c(CC(N)c2ccccc2)c2cc(-c3ccccc3)ccc2n1Cc1ccccc1` (configuration not stated) gave an IC50 (SH-SY5Y) of 11.9 µM, an IC50 (HepG2) of 1.46 µM and an IC50 (HEK293) of 16.3 µM. The IC50 (Jurkat) was 1.9 µM.
Compound `Cc1ccc2[nH]c(C)c(CC(N)c3ccccc3)c2c1` (configuration not stated) has an IC50 (SH-SY5Y) of 46.1 µM, an IC50 (HepG2) of 17.1 µM and an IC50 (HEK293) of 94 µM. It also gave an IC50 (Jurkat) of 13.2 µM.
In the case of `Cc1[nH]c2ccc(F)cc2c1CC(NCc1ccccc1)c1ccccc1` (configuration not stated), the IC50 (SH-SY5Y) is reported as 20.2 µM, the IC50 (HepG2) is reported as 19.4 µM and the IC50 (HEK293) is reported as 65.2 µM. It also gave an IC50 (Jurkat) of 13.8 µM.
